Assay: xn = mol fraction of the nth substance listed

Cc1ccc(C(C)C)c(O)c1 + CCCCCCCC(=O)O
100 kPa, x2 = 0.579
Conditions	viscosity [mPa·s]
293.15 K	9.71
298.15 K	8
303.15 K	6.68
308.15 K	5.65
313.15 K	4.83
318.15 K	4.17
323.15 K	3.64

CCN(CC)c1ccccc1 + CCCCCCCO
viscosity [mPa·s], 100 kPa
Conditions	x1 = 0.1216	x1 = 0.2426	x1 = 0.3349	x1 = 0.4641	x1 = 0.5612	x1 = 0.6524	x1 = 0.7356	x1 = 0.8144	x1 = 0.9141
303.15 K	4.25	3.593	3.178	2.706	2.425	2.21	2.049	1.923	1.792
308.15 K	3.658	3.095	2.735	2.323	2.079	1.895	1.763	1.665	1.577
313.15 K	3.122	2.622	2.308	1.96	1.76	1.617	1.52	1.455	1.405
318.15 K	2.671	2.129	1.826	1.535	1.398	1.319	1.278	1.257	1.243

CCCCCCCCCCCCCC[P+](CCCCCC)(CCCCCC)CCCCCC.c1ccc2[n-]cnc2c1 + O=C=O
Conditions	viscosity [mPa·s]
298.15 K, 100 kPa, x2 = 0.545	388

ClCCCCl + CC(C)CO
viscosity [mPa·s], 101 kPa
Conditions	x1 = 0.0989	x1 = 0.2041	x1 = 0.3021	x1 = 0.3988	x1 = 0.5019	x1 = 0.602	x1 = 0.704	x1 = 0.8027	x1 = 0.8982
298.15 K	2.523	1.948	1.604	1.373	1.194	1.078	1.001	0.9476	0.9412
313.15 K	1.637	1.327	1.127	1.001	0.8964	0.8306	0.789	0.7599	0.7565

CN1CCOC1=O + CS(C)=O
viscosity [mPa·s], 101.33 kPa
Conditions	298.15 K	308.15 K	318.15 K
x1 = 0.0465	2.004	1.663	1.404
x1 = 0.0841	2.012	1.673	1.413
x1 = 0.1676	2.037	1.698	1.437
x1 = 0.2419	2.06	1.72	1.459
x1 = 0.3415	2.09	1.751	1.49
x1 = 0.4275	2.126	1.782	1.518
x1 = 0.5401	2.171	1.826	1.558
x1 = 0.6395	2.218	1.872	1.603
x1 = 0.7524	2.28	1.923	1.645
x1 = 0.8785	2.359	1.99	1.703
x1 = 0.9514	2.415	2.038	1.744

CCCCC(CC)COC(C)=O (centres undefined) + CCCCO
viscosity [mPa·s], 101.33 kPa
Conditions	x1 = 0.0991	x1 = 0.2017	x1 = 0.2984	x1 = 0.4115	x1 = 0.5002	x1 = 0.6078	x1 = 0.7049	x1 = 0.8061	x1 = 0.9005
293.15 K	2.681	2.504	2.344	2.177	2.052	1.91	1.791	1.674	1.572
303.15 K	2.139	2.01	1.894	1.768	1.675	1.568	1.478	1.389	1.311
313.15 K	1.605	1.529	1.461	1.386	1.329	1.264	1.207	1.151	1.101
323.15 K	1.07	1.05	1.031	1.01	0.994	0.974	0.957	0.939	0.923

Nc1ccn([C@@H]2O[C@H](CO)C(O)C2O)c(=O)n1 (some centres undefined) + O
viscosity [mPa·s], 101.3 kPa
Conditions	293.15 K	298.15 K	303.15 K	308.15 K	313.15 K	318.15 K
x1 = 0.0001861	–	0.895	–	0.723	–	0.6
x1 = 0.000263	1.008	0.897	0.809	0.74	0.625	–
x1 = 0.000342	1.009	0.898	0.81	0.741	0.626	–
x1 = 0.0003829	–	0.899	–	0.727	–	0.603
x1 = 0.000448	1.012	0.901	0.813	0.744	0.628	–
x1 = 0.000537	1.014	0.903	0.815	0.746	0.63	–
x1 = 0.0005621	–	0.903	–	0.73	–	0.606
x1 = 0.000632	1.016	0.905	0.817	0.748	0.632	–
x1 = 0.000689	–	0.906	–	0.733	–	0.608
x1 = 0.000722	1.018	0.907	0.819	0.75	0.634	–
x1 = 0.0007525	–	0.907	–	0.734	–	0.609
x1 = 0.0007845	–	0.909	–	0.735	–	0.609

— the CheMixHub viscosity set
